Our source for the relative viability values is the supplement of paper PMC8960247.

The structures appear in SMILES notation. Where a name gives a salt, the structure may show the parent alone. ± gives the standard error.

Experiment [1] has as its system 621-102 (TSC2-deficient). Nature of the experiment: relative viability vs DMSO (fraction); higher = less cytotoxic. Particulars: serum: 0.1% FBS, 72 h.
For another experiment, the system named is UMB1949 (TSC2-deficient). Described as above. Conditions: serum: 0.1% FBS, 72 h.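 Also: renal angiomyolipoma cell lines screened in 384-well plates, viability normalized per plate to DMSO-treated cells, each plate carrying 50 nM rapamycin and 1 µM staurosporine controls.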
For experiment [2], the system named is 621-102 (TSC2-deficient). Nature of the experiment: relative viability vs DMSO; higher = less cytotoxic. Particulars: serum: 10% FBS, 72 h.
The next experiment concerns 621-103 (TSC2-rescued). Described as above. Conditions: serum: 10% FBS, 72 h.

As for `O=C(Nc1c[nH]nc1-c1nc2ccc(CN3CCOCC3)cc2[nH]1)NC1CC1` [AT9283], the relative viability in the experiment on 621-102 (TSC2-deficient) [1] (0.0128 nM) was 1.09; with 621-102 (TSC2-deficient) [1] (0.064 nM) it was 0.98; in the experiment on 621-102 (TSC2-deficient) [1] (0.32 nM) it was 0.952; in the experiment with 621-102 (TSC2-deficient) [1] (1.6 nM), 0.945; in the experiment with 621-102 (TSC2-deficient) [1] (8 nM), 0.718; in the experiment with 621-102 (TSC2-deficient) [1] (40 nM), 0.031. Moreover, the relative viability stood at 0.0179 in the experiment with 621-102 (TSC2-deficient) [1] (200 nM); 0.00825 in the experiment with 621-102 (TSC2-deficient) [1] (1000 nM); 0.00249 in the experiment on 621-102 (TSC2-deficient) [1] (5000 nM); 1.11 in the experiment on UMB1949 (TSC2-deficient) (0.0128 nM); 1.02 in the experiment on UMB1949 (TSC2-deficient) (0.064 nM); 0.973 in the experiment with UMB1949 (TSC2-deficient) (0.32 nM). For the same compound, the relative viability in the experiment on UMB1949 (TSC2-deficient) (1.6 nM) was determined as 0.996; in the experiment with UMB1949 (TSC2-deficient) (8 nM), 0.963; with UMB1949 (TSC2-deficient) (40 nM) it was 0.0359; in the experiment on UMB1949 (TSC2-deficient) (200 nM), 0.0512; in the experiment on UMB1949 (TSC2-deficient) (1000 nM), 0.00329; in the experiment with UMB1949 (TSC2-deficient) (5000 nM), 0.00115. The relative viability in the experiment on 621-102 (TSC2-deficient) [2] (0.0001 µM) worked out at 94.6 ± 1.6%; with 621-102 (TSC2-deficient) [2] (0.001 µM), 103.4 ± 0.37%; in the experiment with 621-102 (TSC2-deficient) [2] (0.01 µM), 106 ± 1.6%; in the experiment on 621-102 (TSC2-deficient) [2] (0.1 µM), 85.8 ± 4.9%; in the experiment with 621-102 (TSC2-deficient) [2] (1 µM), 53.12 ± 0.43%; in the experiment on 621-102 (TSC2-deficient) [2] (10 µM), 15.2 ± 1.2%. The relative viability came out at 73 ± 1.1% in the experiment on 621-103 (TSC2-rescued) (0.0001 µM); 89.4 ± 2.2% in the experiment on 621-103 (TSC2-rescued) (0.001 µM); 81.5 ± 2.2% in the experiment with 621-103 (TSC2-rescued) (0.01 µM); 71.4 ± 2.8% in the experiment with 621-103 (TSC2-rescued) (0.1 µM); 31.5 ± 3.9% in the experiment on 621-103 (TSC2-rescued) (1 µM); 14.6 ± 0.54% in the experiment on 621-103 (TSC2-rescued) (10 µM).

As to `CC(C)[C@H](C(=O)Nc1ccc(C(=O)NO)cc1)c1ccccc1` [AR-42], the relative viability stood at 0.993 in the experiment with 621-102 (TSC2-deficient) [1] (0.0128 nM); 1.12 with 621-102 (TSC2-deficient) [1] (0.064 nM); 1.01 in the experiment on 621-102 (TSC2-deficient) [1] (0.32 nM); 1.02 in the experiment on 621-102 (TSC2-deficient) [1] (1.6 nM); 0.76 with 621-102 (TSC2-deficient) [1] (8 nM); 0.563 in the experiment with 621-102 (TSC2-deficient) [1] (40 nM). Also, the relative viability with 621-102 (TSC2-deficient) [1] (200 nM) was found to be 0.416; with 621-102 (TSC2-deficient) [1] (1000 nM) it was 0.389; with 621-102 (TSC2-deficient) [1] (5000 nM), 0.0646; in the experiment with UMB1949 (TSC2-deficient) (0.0128 nM), 1.03; in the experiment with UMB1949 (TSC2-deficient) (0.064 nM), 1.11; in the experiment on UMB1949 (TSC2-deficient) (0.32 nM) it was 1.12. The relative viability in the experiment with UMB1949 (TSC2-deficient) (1.6 nM) came to 1.07; in the experiment with UMB1949 (TSC2-deficient) (8 nM), 0.89; with UMB1949 (TSC2-deficient) (40 nM), 0.548; with UMB1949 (TSC2-deficient) (200 nM), 0.0124; in the experiment with UMB1949 (TSC2-deficient) (1000 nM), 0.00772; in the experiment on UMB1949 (TSC2-deficient) (5000 nM), 0.00643.

As to `O=C1Nc2ccccc2/C1=C1/Nc2ccccc2C1=O` [Indirubin], the relative viability in the experiment on 621-102 (TSC2-deficient) [1] (0.0128 nM) worked out at 1.08; with 621-102 (TSC2-deficient) [1] (0.064 nM), 0.927; with 621-102 (TSC2-deficient) [1] (0.32 nM), 1.06; in the experiment on 621-102 (TSC2-deficient) [1] (1.6 nM) it was 0.906; in the experiment on 621-102 (TSC2-deficient) [1] (8 nM), 0.922; in the experiment with 621-102 (TSC2-deficient) [1] (40 nM) it was 0.996. Moreover, the relative viability is 0.841 with 621-102 (TSC2-deficient) [1] (200 nM); 0.652 in the experiment on 621-102 (TSC2-deficient) [1] (1000 nM); 0.833 with 621-102 (TSC2-deficient) [1] (5000 nM); 0.983 in the experiment on UMB1949 (TSC2-deficient) (0.0128 nM); 1.03 in the experiment on UMB1949 (TSC2-deficient) (0.064 nM); 1.02 in the experiment on UMB1949 (TSC2-deficient) (0.32 nM). Moreover, the relative viability with UMB1949 (TSC2-deficient) (1.6 nM) is 0.972; with UMB1949 (TSC2-deficient) (8 nM), 0.941; in the experiment on UMB1949 (TSC2-deficient) (40 nM) it was 0.964; in the experiment with UMB1949 (TSC2-deficient) (200 nM) it was 0.87; in the experiment with UMB1949 (TSC2-deficient) (1000 nM), 0.811; with UMB1949 (TSC2-deficient) (5000 nM), 0.749. The relative viability with 621-102 (TSC2-deficient) [2] (0.0001 µM) stood at 97.2 ± 1.8%; in the experiment on 621-102 (TSC2-deficient) [2] (0.001 µM), 92.9 ± 2%; with 621-102 (TSC2-deficient) [2] (0.01 µM) it was 91.53 ± 0.38%; in the experiment with 621-102 (TSC2-deficient) [2] (0.1 µM), 87.8 ± 2.7%; with 621-102 (TSC2-deficient) [2] (1 µM), 92.2 ± 1.6%; with 621-102 (TSC2-deficient) [2] (10 µM) it was 89.5 ± 2.1%. Moreover, the relative viability in the experiment on 621-103 (TSC2-rescued) (0.0001 µM) worked out at 86.1 ± 1.6%; with 621-103 (TSC2-rescued) (0.001 µM), 82.2 ± 3.9%; in the experiment with 621-103 (TSC2-rescued) (0.01 µM) it was 83.7 ± 2.7%; in the experiment on 621-103 (TSC2-rescued) (0.1 µM), 81.9 ± 4%; in the experiment on 621-103 (TSC2-rescued) (1 µM), 79.1 ± 3.3%; with 621-103 (TSC2-rescued) (10 µM) it was 64 ± 2.4%.

Take `CC(C)c1cc(C(C)C)c(CC(=O)NS(=O)(=O)Oc2c(C(C)C)cccc2C(C)C)c(C(C)C)c1` [Avasimibe]: the relative viability in the experiment with 621-102 (TSC2-deficient) [1] (0.0128 nM) came out at 1.07; in the experiment on 621-102 (TSC2-deficient) [1] (0.064 nM), 0.675; in the experiment with 621-102 (TSC2-deficient) [1] (0.32 nM), 1.2; in the experiment with 621-102 (TSC2-deficient) [1] (1.6 nM), 1.1; in the experiment on 621-102 (TSC2-deficient) [1] (8 nM) it was 1.08; in the experiment with 621-102 (TSC2-deficient) [1] (40 nM) it was 1.53. Moreover, the relative viability in the experiment with 621-102 (TSC2-deficient) [1] (200 nM) is 1.4; in the experiment with 621-102 (TSC2-deficient) [1] (1000 nM), 0.32; with 621-102 (TSC2-deficient) [1] (5000 nM), 0.0125; with UMB1949 (TSC2-deficient) (0.0128 nM) it was 1.13; with UMB1949 (TSC2-deficient) (0.064 nM), 1.12; in the experiment on UMB1949 (TSC2-deficient) (0.32 nM) it was 1.19. Moreover, the relative viability was determined as 1.06 in the experiment with UMB1949 (TSC2-deficient) (1.6 nM); 1.08 in the experiment with UMB1949 (TSC2-deficient) (8 nM); 1.1 with UMB1949 (TSC2-deficient) (40 nM); 1.02 with UMB1949 (TSC2-deficient) (200 nM); 0.00835 in the experiment on UMB1949 (TSC2-deficient) (1000 nM); 0.00834 with UMB1949 (TSC2-deficient) (5000 nM).

For `CN1CC[C@H](c2c(O)cc(O)c3c(=O)cc(-c4ccccc4Cl)oc23)[C@H](O)C1` [Flavopiridol hydrochloride], the relative viability in the experiment on 621-102 (TSC2-deficient) [1] (0.0128 nM) turned out to be 0.701; with 621-102 (TSC2-deficient) [1] (0.064 nM) it was 0.787; with 621-102 (TSC2-deficient) [1] (0.32 nM) it was 0.805; with 621-102 (TSC2-deficient) [1] (1.6 nM) it was 0.875; in the experiment on 621-102 (TSC2-deficient) [1] (8 nM), 0.747; with 621-102 (TSC2-deficient) [1] (40 nM), 0.227. Also, the relative viability was found to be 0.009 in the experiment on 621-102 (TSC2-deficient) [1] (200 nM); 0.0076 in the experiment with 621-102 (TSC2-deficient) [1] (1000 nM); 0.0171 in the experiment with 621-102 (TSC2-deficient) [1] (5000 nM); 0.977 in the experiment with UMB1949 (TSC2-deficient) (0.0128 nM); 1 in the experiment on UMB1949 (TSC2-deficient) (0.064 nM); 0.989 in the experiment with UMB1949 (TSC2-deficient) (0.32 nM). The relative viability in the experiment with UMB1949 (TSC2-deficient) (1.6 nM) was determined as 1.04; in the experiment with UMB1949 (TSC2-deficient) (8 nM), 1.15; with UMB1949 (TSC2-deficient) (40 nM) it was 0.855; in the experiment on UMB1949 (TSC2-deficient) (200 nM), 0.00837; with UMB1949 (TSC2-deficient) (1000 nM), 0.00534; with UMB1949 (TSC2-deficient) (5000 nM), 0.00482.

As to `Nc1ccccc1NC(=O)c1ccc(CNc2nccc(-c3cccnc3)n2)cc1` [Mocetinostat], the relative viability in the experiment with 621-102 (TSC2-deficient) [1] (0.0128 nM) stood at 0.964; in the experiment on 621-102 (TSC2-deficient) [1] (0.064 nM), 0.98; in the experiment with 621-102 (TSC2-deficient) [1] (0.32 nM) it was 0.857; in the experiment on 621-102 (TSC2-deficient) [1] (1.6 nM), 0.954; in the experiment with 621-102 (TSC2-deficient) [1] (8 nM), 0.735; in the experiment on 621-102 (TSC2-deficient) [1] (40 nM) it was 0.401. Further, the relative viability in the experiment on 621-102 (TSC2-deficient) [1] (200 nM) is 0.174; in the experiment on 621-102 (TSC2-deficient) [1] (1000 nM), 0.084; in the experiment with 621-102 (TSC2-deficient) [1] (5000 nM), 0.00442; in the experiment on UMB1949 (TSC2-deficient) (0.0128 nM), 1.24; in the experiment with UMB1949 (TSC2-deficient) (0.064 nM) it was 1.09; with UMB1949 (TSC2-deficient) (0.32 nM) it was 1.05. The relative viability was found to be 1.02 in the experiment with UMB1949 (TSC2-deficient) (1.6 nM); 0.951 with UMB1949 (TSC2-deficient) (8 nM); 0.578 in the experiment on UMB1949 (TSC2-deficient) (40 nM); 0.0241 with UMB1949 (TSC2-deficient) (200 nM); 0.00165 in the experiment with UMB1949 (TSC2-deficient) (1000 nM); 0.00203 in the experiment on UMB1949 (TSC2-deficient) (5000 nM).
